≈ marks a conversion by molar mass, not a printed value. Where two headings read alike, the source gives them in different places.
How the values were obtained:
Aureobasidium pullulan = test: MIC in malt yeast agar, Aureobasidium pullulan; format: cell-based, Aureobasidium pullulan (ATCC 16622); conditions: Ap; malt yeast agar; 30° C.; 72 hours for fungi; read-out: Minimum Inhibitory Concentration (MIC)
Experimental: (§1) The minimum inhibitory concentration (MIC) for the compounds listed in Table I is determined for bacteria, using nutrient agar, and 7 yeast and fungi, using malt yeast agar. A one percent solution of the test compound is prepared in a mixture of acetone and water.
(§2) Malt yeast agar is prepared by adding 3 g yeast extract and 45 g malt agar per liter of deionized water. The specific agar is dispensed in 30 mL aliquots into 25×200 mm test tubes, capped and autoclaved for 15 minutes at 115° C.
(§3) The test tubes containing the agar are cooled in a water bath until the temperature of the agar is 48° C. Then, an appropriate amount of the one percent solution of the test compound is added (except in the controls where no compound is added) to the respective test tubes so that the final concentrations are 500, 250, 100, 50, 25, 10, 2.5, 1.0 and zero parts per million of the test compound in the agar, thus having a known concentration of test compound dispersed therein. The contents of the test tubes are then transferred to respective petri plates. After drying for 24 hours, the petri plates containing nutrient agar are inoculated with bacteria and those containing malt yeast agar are inoculated with yeast and fungi.
(§4) The inoculation with the yeast and fungi is accomplished as follows. Cultures of yeast and fungi are incubated for seven days on malt yeast agar at 30° C. These cultures are used to prepare suspensions by the following procedure. A suspension of each organism is prepared by adding 10 mL of sterile saline and 10 microliters of octylphenoxy polyethoxy ethanol to the agar slant of yeast or fungi. The sterile saline/octylphenoxy polyethoxy ethanol solution is then agitated with a sterile swab to suspend the microorganism grown on the slant. Each resulting suspension is diluted into sterile saline (1 part suspension: 9 parts sterile saline). Aliquots of these dilutions are placed in individual wells of Steer's Replicator and petri plates inoculated as previously described. The petri plates are incubated at 30° C. and read after 48 hours for yeast and 72 hours for fungi.
(§5) Table II lists the bacteria, yeast and fungi used in the MIC test described above along with their respective American Type Culture Collection (ATCC) identification numbers.
(§6) In Tables III and IV, the MIC values of the compounds described in Table I as compared to the MIC of a standard commercial preservative (with 1-(3-chloroalkyl)-3,5,7-triaza-1-azoniaadamantane chloride as the active agent and referred to in Tables III and IV as "STANDARD I") are set forth for the bacteria organisms and yeast/fungi organisms which are listed in Table II.

Pseudomonas aeruginosa = test: MIC in nutrient agar, Pseudomonas aeruginosa (Pa); format: cell-based, Pseudomonas aeruginosa (ATCC 10145); conditions: Pa, 48 hours, read-out: Minimum Inhibitory Concentration (MIC)
Experimental: as §1
(§7) Nutrient agar is prepared at pH 6.8, representing a neutral medium, and at pH 8.2, representing an alkaline medium. The nutrient agars are prepared by adding 23 g of nutrient agar to one-liter of deionized water. In addition, the alkaline medium is prepared by adjusting a 0.04M solution of N-(tris-(hydroxymethyl)methyl)glycine buffered deionized water with concentrated sodium hydroxide to a pH of 8.5.
as §3
(§8) The inoculation with bacteria is accomplished by using the following procedure. Twenty-four hour-cultures of each of the bacteria are prepared by incubating the respective bacteria in tubes containing nutrient broth for 24 hours at 30° C. in a shaker. Dilutions of each of the 24 hour-cultures are made so that nine separate suspensions (one for each of the nine test bacteria) are made, each containing 10^8 colony forming units (CFU) per mL of suspension of a particular bacteria. Aliquots of 0.3 mL of each of the bacterial suspensions are used to fill the individual wells of Steer's Replicator. For each microbial suspension, 0.3 mL was used to fill three wells (i.e., three wells of 0.3 mL each) so that for the nine different bacteria, 27 wells are filled. The Steer's Replicator is then used to inoculate both the neutral and alkaline pH nutrient agar petri plates.
(§9) The inoculated petri plates are incubated at 30° C. for 48 hours and then read to determine if the test compound which is incorporated into the agar prevented growth of the respective bacteria.
as §5, §6

Proteus vulgaris = test: MIC in nutrient agar, Proteus vulgaris; format: cell-based, Proteus vulgaris (ATCC 881); conditions: Pv, 48 hours, read-out: Minimum Inhibitory Concentration (MIC)
Experimental: as §1, §7, §3, §8, §9, §5, §6

Salmonella choleraesuis = test: MIC in nutrient agar, Salmonella choleraesuis; format: cell-based, Salmonella choleraesuis (ATCC 10708); conditions: Salmonella enterica, Sc, 48 hours, read-out: Minimum Inhibitory Concentration (MIC)
Experimental: as §1, §7, §3, §8, §9, §5, §6

Escherichia coli = test: MIC in nutrient agar, Escherichia coli; format: cell-based, Escherichia coli (ATCC 11229); conditions: Ec, 48 hours, read-out: Minimum Inhibitory Concentration (MIC)
Experimental: as §1, §7, §3, §8, §9, §5, §6

Penicillium chrysogenum = test: MIC in malt yeast agar, Penicillium chrysogenum; format: cell-based, Penicillium chrysogenum (ATCC 9480); conditions: Pc; malt yeast agar; 30° C.; 72 hours for fungi; read-out: Minimum Inhibitory Concentration (MIC)
Experimental: as §1, §2, §3, §4, §5, §6

Fusarium oxysporum = test: MIC in malt yeast agar, Fusarium oxysporum; format: cell-based, Fusarium oxysporum (ATCC 48112); conditions: Fo; malt yeast agar; 30° C.; 72 hours for fungi; read-out: Minimum Inhibitory Concentration (MIC)
Experimental: as §1, §2, §3, §4, §5, §6

Bacillus subtilis = test: MIC in nutrient agar, Bacillus subtilis; format: cell-based, Bacillus subtilis (ATCC 8473); conditions: Bs, 48 hours, read-out: Minimum Inhibitory Concentration (MIC)
Experimental: as §1, §7, §3, §8, §9, §5, §6

Saccharomyces cerevisiae = test: MIC in malt yeast agar, Saccharomyces cerevisiae; format: cell-based, Saccharomyces cerevisiae (ATCC 4105); conditions: Sc, malt yeast agar, 30° C., 48 hours for yeast, read-out: Minimum Inhibitory Concentration (MIC)
Experimental: as §1, §2, §3, §4, §5, §6

[1] = tested on: Pseudomonas aeruginosa (PRD-10); test: MIC in nutrient agar, Pseudomonas aeruginosa (PRD-10); format: cell-based, Pseudomonas aeruginosa (ATCC 15442); conditions: PRD, 48 hours, read-out: Minimum Inhibitory Concentration (MIC)
Experimental: as §1, §7, §3, §8, §9, §5, §6

Aspergillus niger = test: MIC in malt yeast agar, Aspergillus niger; format: cell-based, Aspergillus niger (ATCC 16404); conditions: An; malt yeast agar; 30° C.; 72 hours for fungi; read-out: Minimum Inhibitory Concentration (MIC)
Experimental: as §1, §2, §3, §4, §5, §6

Candida albicans = test: MIC in malt yeast agar, Candida albicans; format: cell-based, Candida albicans (ATCC 10231); conditions: Ca; malt yeast agar; 30° C.; 48 hours for yeast; read-out: Minimum Inhibitory Concentration (MIC)
Experimental: as §1, §2, §3, §4, §5, §6

Klebsiella pneumonias = test: MIC in nutrient agar, Klebsiella pneumonias; format: cell-based, Klebsiella pneumonias (ATCC 8308); conditions: Kp, 48 hours, read-out: Minimum Inhibitory Concentration (MIC)
Experimental: as §1, §7, §3, §8, §9, §5, §6

Staphylococcus aureus = test: MIC in nutrient agar, Staphylococcus aureus; format: cell-based, Staphylococcus aureus (ATCC 6538); conditions: Sa, 48 hours, read-out: Minimum Inhibitory Concentration (MIC)
Experimental: as §1, §7, §3, §8, §9, §5, §6

Enterobacter aerogenes = test: MIC in nutrient agar, Enterobacter aerogenes; format: cell-based, Enterobacter aerogenes (ATCC 13048); conditions: Klebsiella aerogenes, Ea, 30° C., 48 hours, read-out: Minimum Inhibitory Concentration (MIC)
Experimental: as §1, §7, §3, §8, §9, §5, §6

Trichoderma viride = test: MIC in malt yeast agar, Trichoderma viride; format: cell-based, Trichoderma viride (ATCC 8678); conditions: Tv; malt yeast agar; 30° C.; 72 hours for fungi; read-out: Minimum Inhibitory Concentration (MIC)
Experimental: as §1, §2, §3, §4, §5, §6

SMILES | MIC (Aureobasidium pullulan) | MIC (Pseudomonas aeruginosa; pH 6.8, 30° C.) | MIC (Pseudomonas aeruginosa; pH 8.2, 30° C.) | MIC (Proteus vulgaris; pH 6.8, 30° C.) | MIC (Proteus vulgaris; pH 8.2, 30° C.) | MIC (Salmonella choleraesuis; pH 6.8, 30° C.) | MIC (Salmonella choleraesuis; pH 8.2, 30° C.) | MIC (Escherichia coli; pH 6.8, 30° C.) | MIC (Escherichia coli; pH 8.2, 30° C.) | MIC (Penicillium chrysogenum) | MIC (Fusarium oxysporum) | MIC (Bacillus subtilis; pH 6.8, 30° C.) | MIC (Bacillus subtilis; pH 8.2, 30° C.) | MIC (Saccharomyces cerevisiae) | MIC ([1]; pH 6.8, 30° C.) | MIC ([1]; pH 8.2, 30° C.) | MIC (Aspergillus niger) | MIC (Candida albicans) | MIC (Klebsiella pneumonias; pH 6.8, 30° C.) | MIC (Klebsiella pneumonias; pH 8.2, 30° C.) | further results
N#CSCOc1nsnc1Cl [Example 6, 4-Chloro-3-thiocyanato-methyloxo-1,2,5-thiadiazole] | < 10 µg/mL | 50 µg/mL (≈ 241 µM) | 50 µg/mL (≈ 241 µM) | < 10 µg/mL | 25 µg/mL (≈ 120 µM) | < 10 µg/mL | 25 µg/mL (≈ 120 µM) | 25 µg/mL (≈ 120 µM) | 25 µg/mL (≈ 120 µM) | < 10 µg/mL | < 10 µg/mL | < 10 µg/mL | 25 µg/mL (≈ 120 µM) | < 10 µg/mL | 100 µg/mL (≈ 482 µM) | 100 µg/mL (≈ 482 µM) | < 10 µg/mL | < 10 µg/mL | 25 µg/mL (≈ 120 µM) | 25 µg/mL (≈ 120 µM) | MIC (Staphylococcus aureus; pH 6.8, 30° C.): 25 µg/mL (≈ 120 µM); MIC (Staphylococcus aureus; pH 8.2, 30° C.): 25 µg/mL (≈ 120 µM); MIC (Enterobacter aerogenes; pH 6.8): 50 µg/mL (≈ 241 µM); MIC (Enterobacter aerogenes; pH 8.2): 50 µg/mL (≈ 241 µM); MIC (Trichoderma viride): 25 µg/mL (≈ 120 µM)
N#CSCCSc1nsnc1SCCSC#N [Example 5, Bis(thioethylthiocyanato)-1,2,5-thiadiazole] | < 10 µg/mL | > 500 µg/mL | > 500 µg/mL | > 500 µg/mL | > 500 µg/mL | > 500 µg/mL | > 500 µg/mL | > 500 µg/mL | > 500 µg/mL | < 10 µg/mL | 250 µg/mL (≈ 780 µM) | > 500 µg/mL | > 500 µg/mL | < 10 µg/mL | > 500 µg/mL | > 500 µg/mL | < 10 µg/mL | 100 µg/mL (≈ 312 µM) | > 500 µg/mL | > 500 µg/mL | MIC (Staphylococcus aureus; pH 6.8, 30° C.): > 500 µg/mL; MIC (Staphylococcus aureus; pH 8.2, 30° C.): > 500 µg/mL; MIC (Enterobacter aerogenes; pH 6.8): > 500 µg/mL; MIC (Enterobacter aerogenes; pH 8.2): > 500 µg/mL; MIC (Trichoderma viride): > 500 µg/mL
